Experimental data taken from patent US20070232615A1, “Chemical Compounds” (priority 2004, published 2007).

system: HIV; assay: HOS HIV infectivity assay (Table 2, strain not given); assay type: cell-based; details: Human immunodeficiency virus 1, read-out: Activity Level
Procedure: HOS HIV-1 Infectivity Assay
Compounds were profiled against two HIV-1 viruses, the M-tropic (CCR5 utilizing) Ba-L strain and the T-tropic (CXCR4 utilizing) IIIB strain. Both viruses were propagated in human peripheral blood lymphocytes. Compounds were tested for there ability to block infection of the HOS cell line (expressing hCXCR4/hCCR5/hCD4/pHIV-LTR-luciferase) by either HIV-1 Ba-L or HIV-1 IIIB. Compound cytotoxicity was also examined in the absence of virus addition.
HOS HIV-1 Infectivity Assay Format
HOS cells (expressing hCXCR4/hCCR5/hCD4/pHIV-LTR-luciferase) were harvested and diluted in Dulbeccos modified Eagles media supplemented with 2% FCS and non-essential amino acid to a concentration of 60,000 cells/ml. The cells were plated into 96-well plates (100 ul per well) and the plates were placed in a tissue culture incubator (37° C.; 5% CO2/95% air) for a period of 24 h.
Subsequently, 50 ul of the desired drug solution (4 times the final concentration) was added to each well and the plates were returned to the tissue culture incubator (37° C.; 5% CO2/95% air) for 1 h. Following this incubation 50 ul of diluted virus was added to each well (approximately 2 million RLU per well of virus). The plates were returned to the tissue culture incubator (37° C.; 5% CO2/95% air) and were incubated for a further 96 h.
Following this incubation the endpoint for the virally infected cultures was quantified following addition of Steady-Glo Luciferase assay system reagent (Promega, Madison, Wis.). Cell viability or non-infected cultures was measured using a CellTiter-Glo luminescent cell viability assay system (Promega, Madison, Wis.). All luminescent readouts are performed on a Topcount luminescence detector (Packard, Meridien, Conn.).

SMILES | IC50 [nM]
CN(Cc1cn2c(-c3cccnc3)cccc2n1)C1CCCc2cccnc21 (centres unmarked) [Example 40, N-Methyl-N-{[5-(3-pyridinyl)imidazo[1,2-a]pyridin-2-yl]methyl}-5,6,7,8-tetrahydro-8-quinolinamine] | 500 to 10000
CN(C)C1CCN(c2cccc3nc(CN(C)C4CCCc5cccnc54)cn23)CC1 (centres unmarked) [Example 38, N-({5-[4-(Dimethylamino)-1-piperidinyl]imidazo[1,2-a]pyridin-2-yl}methyl)-N-methyl-5,6,7,8-tetrahydro-8-quinolinamine] | < 100
CCCN(Cc1cn2c(N3CC[C@@H](N(C)C)C3)cccc2n1)[C@H]1CCCc2cccnc21 [Example 97, (8S)—N-({5-[(3R)-3-(Dimethylamino)-1-pyrrolidinyl]imidazo[1,2-a]pyridin-2-yl}methyl)-N-propyl-5,6,7,8-tetrahydro-8-quinolinamine] | < 100
CN(Cc1cn2c(N3CC[C@@H](N(C)C)C3)cccc2n1)C1CCCc2cccnc21 (stereo partly drawn) [Example 23, N-({5-[(3R)-3-(Dimethylamino)-1-pyrrolidinyl]imidazo[1,2-a]pyridin-2-yl}methyl)-N-methyl-5,6,7,8-tetrahydro-8-quinolinamine] | < 100
CN1CCN(c2cccc3nc(CN(Cc4ccc(F)cc4)[C@H]4CCCc5cccnc54)cn23)CC1 [Example 62, (8S)—N-[(4-Fluorophenyl)methyl]-N-{[5-(4-methyl-1-piperazinyl)imidazo[1,2-a]pyridin-2-yl]methyl}-5,6,7,8-tetrahydro-8-quinolinamine] | < 100
CN(Cc1cn2c(N3CCC(N)CC3)cccc2n1)[C@H]1CCCc2cccnc21 [Example 80, (8S)—N-{[5-(4-Amino-1-piperidinyl)imidazo[1,2-a]pyridin-2-yl]methyl}-N-methyl-5,6,7,8-tetrahydro-8-quinolinamine] | < 100
CN1CCN(c2cccc3nc(CN(Cc4ccc(C(F)(F)F)cc4)[C@H]4CCCc5cccnc54)cn23)CC1 [Example 71, (8S)—N-{[5-(4-Methyl-1-piperazinyl)imidazo[1,2-a]pyridin-2-yl]methyl}-N-{[4-(trifluoromethyl)phenyl]methyl}-5,6,7,8-tetrahydro-8-quinolinamine] | < 100
CN(C)[C@@H]1CCN(c2cccc3nc(CN(C)[C@H]4CCCc5cccnc54)cn23)C1 [Example 83, (8S)—N-({5-[(3R)-3-(Dimethylamino)-1-pyrrolidinyl]imidazo[1,2-a]pyridin-2-yl}methyl)-N-methyl-5,6,7,8-tetrahydro-8-quinolinamine] | < 100
CN1CCN(c2cccc3nc(CN(C)[C@@H]4CCCc5cccnc54)cn23)CC1 [Example 52, (8R)—N-Methyl-N-{[5-(4-methyl-1-piperazinyl)imidazo[1,2-a]pyridin-2-yl]methyl}-5,6,7,8-tetrahydro-8-quinolinamine] | < 100
CN(C)C1CN(c2cccc3nc(CN(C)C4CCCc5cccnc54)cn23)C1 (centres unmarked) [Example 26, N-({5-[3-(Dimethylamino)-1-azetidinyl]imidazo[1,2-a]pyridin-2-yl}methyl)-N-methyl-5,6,7,8-tetrahydro-8-quinolinamine] | 100 to 500
CN(Cc1cn2c(N3CCCNCC3)cccc2n1)[C@H]1CCCc2cccnc21 [Example 84, (8S)—N-{[5-(Hexahydro-1H-1,4-diazepin-1-yl)imidazo[1,2-a]pyridin-2-yl]methyl}-N-methyl-5,6,7,8-tetrahydro-8-quinolinamine] | < 100

Second part, the compound after the results:

IC50 [nM] | SMILES
< 100 | CN1CCN(c2cccc3nc(CN(CC4CC4)[C@H]4CCCc5cccnc54)cn23)CC1 [Example 57, (8S)—N-(Cyclopropylmethyl)-N-{[5-(4-methyl-1-piperazinyl)imidazo[1,2-a]pyridin-2-yl]methyl}-5,6,7,8-tetrahydro-8-quinolinamine]
< 100 | CN1CCN(c2cccc3nc(CN(Cc4ccc(Br)cc4)[C@H]4CCCc5cccnc54)cn23)CC1 [Example 65, (8S)—N-[(4-Bromophenyl)methyl]-N-{[5-(4-methyl-1-piperazinyl)imidazo[1,2-a]pyridin-2-yl]methyl}-5,6,7,8-tetrahydro-8-quinolinamine]
< 100 | CN1CCN(c2cccc3nc(CN(CCO)[C@H]4CCCc5cccnc54)cn23)CC1 [Example 78, 2-{{[5-(4-Methyl-1-piperazinyl)imidazo[1,2-a]pyridin-2-yl]methyl}[(8S)-5,6,7,8-tetrahydro-8-quinolinyl]amino}ethanol]
< 100 | CN(C)CCNc1cccc2nc(CN(C)[C@H]3CCCc4cccnc43)cn12 [Example 101, N,N-Dimethyl-N′-[2-({methyl[(8S)-5,6,7,8-tetrahydro-8-quinolinyl]amino}methyl)imidazo[1,2-a]pyridin-5-yl]-1,2-ethanediamine]
< 100 | CN(C)CCOc1cccc2nc(CN(C)[C@H]3CCCc4cccnc43)cn12 [Example 104, (8S)—N-[(5-{[2-(Dimethylamino)ethyl]oxy}imidazo[1,2-a]pyridin-2-yl)methyl]-N-methyl-5,6,7,8-tetrahydro-8-quinolinamine]
< 100 | Cc1ccc(CN(Cc2cn3c(N4CCN(C)CC4)cccc3n2)[C@H]2CCCc3cccnc32)cc1 [Example 68, (8S)—N-[(4-Methylphenyl)methyl]-N-{[5-(4-methyl-1-piperazinyl)imidazo[1,2-a]pyridin-2-yl]methyl}-5,6,7,8-tetrahydro-8-quinolinamine]
< 100 | CC(C)N(Cc1cn2c(N3CC[C@@H](N(C)C)C3)cccc2n1)[C@H]1CCCc2cccnc21 [Example 98, (8S)—N-({5-[(3R)-3-(Dimethylamino)-1-pyrrolidinyl]imidazo[1,2-a]pyridin-2-yl}methyl)-N-(1-methylethyl)-5,6,7,8-tetrahydro-8-quinolinamine]
< 100 | CN(Cc1cn2c(N3CC[C@H](N(C)C)C3)cccc2n1)C1CCCc2cccnc21 (stereo partly drawn) [Example 24, N-({5-[(3S)-3-(Dimethylamino)-1-pyrrolidinyl]imidazo[1,2-a]pyridin-2-yl}methyl)-N-methyl-5,6,7,8-tetrahydro-8-quinolinamine]
< 100 | CN1CCN(c2cccc3nc(CN(Cc4cccc(C(F)(F)F)c4)[C@H]4CCCc5cccnc54)cn23)CC1 [Example 70, (8S)—N-{[5-(4-Methyl-1-piperazinyl)imidazo[1,2-a]pyridin-2-yl]methyl}-N-{[3-(trifluoromethyl)phenyl]methyl}-5,6,7,8-tetrahydro-8-quinolinamine]
< 100 | COc1ccccc1CN(Cc1cn2c(N3CCN(C)CC3)cccc2n1)[C@H]1CCCc2cccnc21 [Example 72, (8S)—N-{[2-(Methyloxy)phenyl]methyl}-N-{[5-(4-methyl-1-piperazinyl)imidazo[1,2-a]pyridin-2-yl]methyl}-5,6,7,8-tetrahydro-8-quinolinamine]
< 100 | CN1CCN(c2cccc3nc(CN(Cc4ccccc4)[C@H]4CCCc5cccnc54)cn23)CC1 [Example 59, (8S)—N-{[5-(4-Methyl-1-piperazinyl)imidazo[1,2-a]pyridin-2-yl]methyl}-N-(phenylmethyl)-5,6,7,8-tetrahydro-8-quinolinamine]
< 100 | CC(C)CN(Cc1cn2c(N3CCN(C)CC3)cccc2n1)[C@H]1CCCc2cccnc21 [Example 53, (8S)—N-{[5-(4-Methyl-1-piperazinyl)imidazo[1,2-a]pyridin-2-yl]methyl}-N-(2-methylpropyl)-5,6,7,8-tetrahydro-8-quinolinamine]
